The results in this text go back to patent US20250145633A1, “SUBSTITUTED FURANOPYRIMIDINE COMPOUNDS AS PDE1 INHIBITORS” (Dart NeuroScience, LLC, priority 2017, published 2025).

The structures appear in SMILES notation. Some results are limits rather than exact numbers.

The first assay addresses human PDE1B enzyme (Homo sapiens (Human), UniProt Q01064). The assay can be described thus: IMAP TR-FRET PDE1B enzymatic assay. In kind it is biochemical.
Settings: not given
The method in brief:
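Full-length GST-tagged human PDE1B (250 pg/well) in IMAP BSA buffer with 10 U/ml calmodulin and 2.5 mM CaCl2; compound pre-incubated 5 min at room temperature, then 200 nM (final) FAM-cAMP for 30 min. IMAP binding reagent/Tb added, 1 h; TR-FRET 520/490 ratio read. IC50 from sigmoidal dose-response fit.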
In general terms: Time-resolved FRET reads energy transfer from a long-lived donor to a nearby acceptor.
In the case of `Cc1oc2ncnc(NC3(C)CC3)c2c1C(=O)N1CCC(C#N)(c2ccccc2)CC1` [Example 274, 1-{6-Methyl-4-[(1-methylcyclopropyl)amino]furo[2,3-d]pyrimidine-5-carbonyl}-4-phenylpiperidine-4-carbonitrile], the IC50 fell in the range of 10 to 100 nM.

Staying with this assay, now noted: negative log of half-maximal molar inhibitory concentration; 200 nM FAM-cAMP; values given as bins.
For the molecule `Cc1ccc(CNC(=O)c2c(C)oc3ncnc(NC4(C)CC4)c23)cc1C` [Example 237, N-[(3,4-Dimethylphenyl)methyl]-6-methyl-4-[(1-methylcyclopropyl)amino]furo[2,3-d]pyrimidine-5-carboxamide], the “PDE1b (pIC50)” value is over 8.
Still for that read-out and setting: the value for `Cc1cccc(CNC(=O)c2c(C)oc3ncnc(NC4(C)CC4)c23)c1C` [Example 238, N-[(2,3-Dimethylphenyl)methyl]-6-methyl-4-[(1-methylcyclopropyl)amino]furo[2,3-d]pyrimidine-5-carboxamide] was over 8; that for `Cc1oc2ncnc(NC3(C)CC3)c2c1C(=O)NCc1ccc(OC(F)F)cc1` [Example 267, N-{[4-(Difluoromethoxy)phenyl]methyl}-6-methyl-4-[(1-methylcyclopropyl)amino]furo[2,3-d]pyrimidine-5-carboxamide] was over 8.

The same assay, now with this note: negative log of half-maximal molar inhibitory concentration; 200 nM FAM-cAMP; values given as bins; read-out: PDE1b (pIC50) (converted).
Regarding `Cc1oc2ncnc(NC3(C)CC3)c2c1C(=O)NCCc1cccs1` [Example 222, 6-Methyl-4-[(1-methylcyclopropyl)amino]-N-[2-(thiophen-2-yl)ethyl]furo[2,3-d]pyrimidine-5-carboxamide], the IC50 was 10 to 100 nM.
The same measure, in the same setting: as for `Cc1oc2ncnc(NC3(C)CC3)c2c1C(=O)N(C)Cc1ccsc1` [Example 223, N,6-Dimethyl-4-[(1-methylcyclopropyl)amino]-N-(thiophen-3-ylmethyl)furo[2,3-d]pyrimidine-5-carboxamide], the figure is 10 to 100 nM.
The same measure, in the same setting: as for `Cc1oc2ncnc(NC3(C)CC3)c2c1C(=O)N(C)Cc1cccs1` [Example 224, N,6-Dimethyl-4-[(1-methylcyclopropyl)amino]-N-(thiophen-2-ylmethyl)furo[2,3-d]pyrimidine-5-carboxamide], the figure is 10 to 100 nM.
Same read-out and setting: as for `Cc1oc2ncnc(NC3(C)CC3)c2c1C(=O)NCCC1CCCCC1` [Example 225, N-(2-Cyclohexylethyl)-6-methyl-4-[(1-methylcyclopropyl)amino]furo[2,3-d]pyrimidine-5-carboxamide], the figure is 10 to 100 nM; as for `Cc1oc2ncnc(NC3(C)CC3)c2c1C(=O)NC1CCc2ccccc21` (stereo not drawn) [Example 230, N-(2,3-Dihydro-1H-inden-1-yl)-6-methyl-4-[(1-methylcyclopropyl)amino]furo[2,3-d]pyrimidine-5-carboxamide], 10 to 100 nM.
As to `Cc1oc2ncnc(NC3(C)CC3)c2c1C(=O)N1CCc2ccccc2C1` [Example 233, 6-Methyl-N-(1-methylcyclopropyl)-5-(1,2,3,4-tetrahydroisoquinoline-2-carbonyl)furo[2,3-d]pyrimidin-4-amine], the IC50 was 10 to 100 nM.
Still for that read-out and setting: the value for `Cc1ccc(CCNC(=O)c2c(C)oc3ncnc(NC4(C)CC4)c23)cc1` [Example 235, 6-Methyl-4-[(1-methylcyclopropyl)amino]-N-[2-(4-methylphenyl)ethyl]furo[2,3-d]pyrimidine-5-carboxamide] was 10 to 100 nM.
On the same count and under the same terms, the value for `Cc1ccccc1CCNC(=O)c1c(C)oc2ncnc(NC3(C)CC3)c12` [Example 236, 6-Methyl-4-[(1-methylcyclopropyl)amino]-N-[2-(2-methylphenyl)ethyl]furo[2,3-d]pyrimidine-5-carboxamide] was 10 to 100 nM.
Same read-out and setting: as for `Cc1oc2ncnc(NC3(C)CC3)c2c1C(=O)NC(C)(C)c1ccccc1` [Example 239, 6-Methyl-4-[(1-methylcyclopropyl)amino]-N-(2-phenylpropan-2-yl)furo[2,3-d]pyrimidine-5-carboxamide], the figure is 10 to 100 nM.
On to `COc1ccc(NC(=O)c2c(C)oc3ncnc(NC4(C)CC4)c23)c(C)c1` [Example 244, N-(4-Methoxy-2-methylphenyl)-6-methyl-4-[(1-methylcyclopropyl)amino]furo[2,3-d]pyrimidine-5-carboxamide], for which the IC50 was 10 to 100 nM.
Same read-out and setting: as for `COc1cccc(CNC(=O)c2c(C)oc3ncnc(NC4(C)CC4)c23)c1` [Example 246, N-[(3-Methoxyphenyl)methyl]-6-methyl-4-[(1-methylcyclopropyl)amino]furo[2,3-d]pyrimidine-5-carboxamide], the figure is 10 to 100 nM; as for `Cc1oc2ncnc(NC3(C)CC3)c2c1C(=O)N(C)Cc1ccc(F)cc1` [Example 248, N-[(4-Fluorophenyl)methyl]-N,6-dimethyl-4-[(1-methylcyclopropyl)amino]furo[2,3-d]pyrimidine-5-carboxamide], 10 to 100 nM.
On the same count and under the same terms, as for `Cc1oc2ncnc(NC3(C)CC3)c2c1C(=O)N(C)Cc1ccccc1F` [Example 249, N-[(2-Fluorophenyl)methyl]-N,6-dimethyl-4-[(1-methylcyclopropyl)amino]furo[2,3-d]pyrimidine-5-carboxamide], the figure is 10 to 100 nM; as for `Cc1oc2ncnc(NC3(C)CC3)c2c1C(=O)N(C)Cc1cccc(F)c1` [Example 250, N-[(3-Fluorophenyl)methyl]-N,6-dimethyl-4-[(1-methylcyclopropyl)amino]furo[2,3-d]pyrimidine-5-carboxamide], 10 to 100 nM.
For the molecule `CCc1cc(CN(C)C(=O)c2c(C)oc3ncnc(NC4(C)CC4)c23)on1` [Example 251, N-[(3-Ethyl-1,2-oxazol-5-yl)methyl]-N,6-dimethyl-4-[(1-methylcyclopropyl)amino]furo[2,3-d]pyrimidine-5-carboxamide], the IC50 is 10 to 100 nM.
As for `COc1cc(NC(=O)c2c(C)oc3ncnc(NC4(C)CC4)c23)ccc1F` [Example 253, N-(4-Fluoro-3-methoxyphenyl)-6-methyl-4-[(1-methylcyclopropyl)amino]furo[2,3-d]pyrimidine-5-carboxamide], the IC50 is 10 to 100 nM.
The same measure, in the same setting: as for `Cc1oc2ncnc(NC3(C)CC3)c2c1C(=O)NCc1ccccc1Cl` [Example 254, N-[(2-Chlorophenyl)methyl]-6-methyl-4-[(1-methylcyclopropyl)amino]furo[2,3-d]pyrimidine-5-carboxamide], the figure is 10 to 100 nM.
On the same count and under the same terms, the value for `Cc1ccc(Cl)c(NC(=O)c2c(C)oc3ncnc(NC4(C)CC4)c23)c1` [Example 256, N-(2-Chloro-5-methylphenyl)-6-methyl-4-[(1-methylcyclopropyl)amino]furo[2,3-d]pyrimidine-5-carboxamide] was 10 to 100 nM; that for `COCCN1CCN(C(=O)c2c(C)oc3ncnc(NC4(C)CC4)c23)CC1` [Example 260, 5-[4-(2-Methoxyethyl)piperazine-1-carbonyl]-6-methyl-N-(1-methylcyclopropyl)furo[2,3-d]pyrimidin-4-amine] was 100 to 1000 nM.
Still for that read-out and setting: the value for `Cc1oc2ncnc(NC3(C)CC3)c2c1C(=O)Nc1ccc2c(cnn2C)c1` [Example 262, 6-Methyl-N-(1-methyl-1H-indazol-5-yl)-4-[(1-methylcyclopropyl)amino]furo[2,3-d]pyrimidine-5-carboxamide] was 10 to 100 nM; that for `Cc1oc2ncnc(NC3(C)CC3)c2c1C(=O)Nc1ccc2scnc2c1` [Example 263, N-(1,3-Benzothiazol-5-yl)-6-methyl-4-[(1-methylcyclopropyl)amino]furo[2,3-d]pyrimidine-5-carboxamide] was 10 to 100 nM; that for `Cc1oc2ncnc(NC3(C)CC3)c2c1C(=O)N(C)Cc1cc(C2CC2)[nH]n1` [Example 265, N-[(5-Cyclopropyl-1H-pyrazol-3-yl)methyl]-N,6-dimethyl-4-[(1-methylcyclopropyl)amino]furo[2,3-d]pyrimidine-5-carboxamide] was 10 to 100 nM.
As to `Cc1oc2ncnc(NC3(C)CC3)c2c1C(=O)N1CCn2ccnc2C1` [Example 269, 5-{5H,6H,7H,8H-Imidazo[1,2-a]pyrazine-7-carbonyl}-6-methyl-N-(1-methylcyclopropyl)furo[2,3-d]pyrimidin-4-amine], the IC50 was 10 to 100 nM.
Same read-out and setting: as for `Cc1oc2ncnc(NC3(C)CC3)c2c1C(=O)NC12CC3CC(CC(C3)C1)C2` [Example 270, N-(Adamantan-1-yl)-6-methyl-4-[(1-methylcyclopropyl)amino]furo[2,3-d]pyrimidine-5-carboxamide], the figure is under 10 nM.
On to `Cc1oc2ncnc(NC3(C)CC3)c2c1C(=O)N1CCc2sccc2C1` [Example 273, 6-Methyl-N-(1-methylcyclopropyl)-5-{4H,5H,6H,7H-thieno[3,2-c]pyridine-5-carbonyl}furo[2,3-d]pyrimidin-4-amine], for which the IC50 was 10 to 100 nM.
For the molecule `CCOCC1(CNC(=O)c2c(C)oc3ncnc(NC4(C)CC4)c23)CC1` [Example 275, N-{[1-(Ethoxymethyl)cyclopropyl]methyl}-6-methyl-4-[(1-methylcyclopropyl)amino]furo[2,3-d]pyrimidine-5-carboxamide], the IC50 is 10 to 100 nM.
On the same count and under the same terms, as for `Cc1oc2ncnc(NC3(C)CC3)c2c1C(=O)N1CC2C(C1)C2(C)C` (stereo not drawn) [Example 278, 5-{6,6-Dimethyl-3-azabicyclo[3.1.0]hexane-3-carbonyl}-6-methyl-(1-methylcyclopropyl)furo[2,3-d]pyrimidin-4-amine], the figure is 10 to 100 nM; as for `Cc1oc2ncnc(NC3(C)CC3)c2c1C(=O)N1C[C@@H]2[C@H](C1)[C@H]2c1ccc(F)cc1` [Example 279, 5-[(1R,5S,6S)-6-(4-Fluorophenyl)-3-azabicyclo[3.1.0]hexane-3-carbonyl]-6-methyl-N-(1-methylcyclopropyl)furo[2,3-d]pyrimidin-4-amine], 10 to 100 nM; as for `Cc1oc2ncnc(NC3(C)CC3)c2c1C(=O)NCc1cccc(F)n1` [Example 280, N-[(6-Fluoropyridin-2-yl)methyl]-6-methyl-4-[(1-methylcyclopropyl)amino]furo[2,3-d]pyrimidine-5-carboxamide], 10 to 100 nM.
